{"source": "paper PMC9745132", "about": "“Visualization of real-time receptor endocytosis in dopamine neurons enabled by NTSR1-Venus knock-in mice” (Frontiers in Cellular Neuroscience, 2022)", "key": {"NTSR1": {"target": "T1, NTSR1 (Mus musculus, UniProt O88319)", "T1 construct": "expressed in transfected cells; host or cells: HEK293 (HEK293SL)", "T1 sequence (O88319 whole entry)": "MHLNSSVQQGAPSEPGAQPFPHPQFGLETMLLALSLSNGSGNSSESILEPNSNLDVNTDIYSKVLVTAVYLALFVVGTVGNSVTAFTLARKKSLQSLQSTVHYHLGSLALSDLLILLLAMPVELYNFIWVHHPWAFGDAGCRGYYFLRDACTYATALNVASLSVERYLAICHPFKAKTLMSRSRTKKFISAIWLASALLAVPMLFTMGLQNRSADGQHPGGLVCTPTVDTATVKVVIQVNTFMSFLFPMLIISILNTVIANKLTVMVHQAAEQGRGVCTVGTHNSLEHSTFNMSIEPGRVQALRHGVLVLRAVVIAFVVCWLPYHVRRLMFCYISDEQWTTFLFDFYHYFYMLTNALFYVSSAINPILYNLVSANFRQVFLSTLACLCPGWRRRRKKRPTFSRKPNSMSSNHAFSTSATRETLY", "test": "Gq activation ebBRET (Gq EMTA, p63RhoGEF-RlucII / rGFP-CAAX) in HEK293 cells, untagged NTSR1", "assay_type": "cell-based", "details": "mean ± SEM", "excerpt": "The mouse coding sequence of NTSR1 was PCR amplified from pCMV6-mNTSR1 (Origene, Rockville, MD, USA) and subcloned upstream from the IRES feature with a STOP codon before IRES into pIRES (Invitrogen, Waltham, MA, USA) and pIRES-Venus vector previously described ([Hamdan et al., 2005]) resulting in expression of either untagged NTSR1 or NTSR1-Venus. […] The pIRES vector was used The rGFP-CAAX BRET and Gq GEMTA biosensors construct were generated as previously described ([Namkung et al., 2016]; [Avet et al., 2022]).\nHEK293 clonal cell line (HEK293SL cells), hereafter referred as HEK293 cells, were a gift from S. Laporte (McGill University, Montreal, Quebec, Canada) and previously described ([Namkung et al., 2016]). Cells were maintained in Dulbecco’s Modified Eagle Medium (DMEM, Wisent, Saint-Jean-Baptiste, QC, Canada) supplemented with 10% fetal bovine serum (FBS, Wisent) and 1% antibiotics [100 U/mL penicillin and 100 μg/mL streptomycin (PS); Wisent]. Cells were grown at 37°C in 5% CO2 and 90% humidity and checked for mycoplasma contamination. […] The total quantity of DNA was completed at 1 μg with salmon sperm DNA (Invitrogen, Waltham, MA, USA). […]\nForty-eight hours post-transfection, cells were washed once with phosphate-buffered saline (PBS) then incubated 1 h at 37°C in Tyrode buffer (137 mM NaCI, 0.9 mM KCI, 1 mM MgCI2, 1 1.9 mM NaHCO3, 3.6 mM NaH2PO4, 25 mM HEPES, 5.5 mM Glucose, and 1 mM CaCI2, pH 7.4). […] Bioluminescence resonance energy transfer (BRET) was then measured between RlucII (BRET energy donor) and rGFP (enhanced bystander ebBRET acceptor)–tagged proteins. BRET values were read for 1 s per well using a Mithras™ LB940 Multimode Microplate Reader (Berthold Technologies, Bad Wildbad, Germany) for concentration–response curves. ebBRET values were obtained by calculating the ratio of the light emitted by the energy acceptor over the light emitted by the energy donor (donor 410 ± 70 nm/acceptor 515 ± 20 nm). […] They were then fitted and analyzed in GraphPad Prism (v9.0, GraphPad Software, Inc., San Diego, CA, USA). […]"}, "NTSR1-Venus": {"target": "T2, NTSR1-Venus (Mus musculus, UniProt O88319)", "T2 construct": "monitoring endogenous NTSR1-Venus receptor endocytosis could differentiate NTSR1 agonists; endogenous in cells; host or cells: primary hippocampal neurons from homozygous NTSR1-Venus knock-in mice (C57BL/6N background)", "T2 sequence (O88319 whole entry)": "as above", "test": "Multiphoton imaging of NTSR1-Venus internalization in acute SN/VTA brain slices", "assay_type": "cell-based", "details": "10 μM on slices recovered in 1 μM SR48692", "description": "Male and female Ntsr1^Venus/Venus mice aged 5 weeks were anesthetized, and 250 μm-thick coronal slices containing substantia nigra pars compacta and ventral tegmental area were prepared. Cutting solution contained (in mM): 87 NaCl, 25 NaHCO3, 25 glucose, 75 sucrose, 2.5 KCl, 1.25 NaH2PO4, 0.5 CaCl2, and 7 MgCl2; bubbled with 5% CO2/95%O2; 4°C. Following cutting, slices were incubated in the same solution for 30 min at 33°C. For control experiments, slices were subsequently incubated in the same solution at room temperature until imaging. For antagonist experiments, slices were subsequently incubated in cutting solution with 1 μM SR48962 until imaging. SR48962 was prepared as a 1 mM stock in water.\nImaging solution referred to as aCSF contained (in mM): 125 NaCl, 2.5 KCl, 2 CaCl2, 1 MgCl2, 25 NaHCO3, 1.25 NaH2PO4, 25 glucose; bubbled with 5% CO2/95% O2; 31–34°C, ∼310 mOsm. For antagonist-only experiments, 1 μM SR48962 was added to the imaging solution. For antagonist plus agonist experiments, a baseline image was taken with no NTSR1 agonist or antagonist in the imaging solution, and subsequently, 10 μM PD149163 [prepared from a stock solution in water] was added to the imaging solution. As a precautionary measure, all components that were exposed to antagonist were rinsed first with 70% ethanol and then water. All components that were exposed to agonist were replaced between experiments.\nFor two-photon laser scanning microscopy (2PLSM), a 2-photon source (Coherent Ultra II, Santa Clara, CA, USA) was tuned to 920 nm for imaging. […] Both epi and transfluorescence were detected with R9110 photomultiplier tubes (Hamamatsu, Shizuoka, Japan). Laser power measured at the focal plane under the objective was between 8 and 34 mW. […]\nTo test whether NTSR1 receptors are indeed being bound by endogenous ligand in acute slice, we compared NTSR1 distribution in slices treated with the NTSR1 specific antagonist, SR48692 ([Gully et al., 1993]). […] NTSR1-Venus puncta were then quantified in the acquired image projections by counting vesicle-sized particles (Figure 5E). […]"}, "[1]": {"tested_on": "hippocampal neurons from Ntsr1^WT/WT mice", "test": "Intracellular calcium release (Fluo-4) in hippocampal neurons from Ntsr1^WT/WT mice", "assay_type": "cell-based, mouse"}, "[2]": {"tested_on": "hippocampal neurons from Ntsr1^Venus/Venus mice", "test": "Intracellular calcium release (Fluo-4) in hippocampal neurons from Ntsr1^Venus/Venus mice", "assay_type": "cell-based, mouse", "description": "To isolate hippocampal neurons, P0 pups were removed from the cage of NTSR1-Venus homozygous knock-in breeding pairs. Pups were decapitated, brains were removed dorsal side up into fresh ice-cold Hank’s balanced salt solution (HBSS; Gibco, Grand Island, NY, USA), meninges were removed, and hippocampi were dissected into Hibernate A (Gibco, Grand Island, NY, USA) on ice. Tissue dissociation was carried out with the Papain Dissociation System according to the manufacturer’s protocol (Worthington Biochemical Corporation, Lakewood, NJ, USA). Neurons were plated on Poly-D-Lysine (Sigma) coated surfaces at 100,000 cells per 12 mm coverslip (NeuVitro, Camas, WA, USA) in a 24-well plate for immunostaining or 50,000 cells per well of an 8 well chamber slide (Ibidi, Grafelfing, Germany) for calcium measurements. Plating media [Neurobasal A (Gibco, Grand Island, NY, USA), 1% FBS (Fisher Scientific), 2% B-27 (Gibco, Grand Island, NY, USA), 0.5 mM GlutaMAX (Gibco, Grand Island, NY, USA), and 1x Penicillin/Streptomycin (Invitrogen, Waltham, MA, USA)] was exchanged 1 h after plating to maintenance media (Neurobasal A, 2% B-27, 0.5 mM GlutaMAX, and 1x Penicillin/Streptomycin). Half of the volume of media was exchanged for fresh media every 3–4 days. On day in vitro (DIV) 3 Cytosine arabinoside hydrochloride (Sigma) was added to media with a final concentration of 0.1 μM to decrease glial cell proliferation.\nHippocampal neurons were grown until DIV 7. Fluo-4 NW Calcium Assay kit (Thermo Fisher) was used according to the manufacturer’s protocol. Briefly, drugs were prepared at 4 μM stock solutions in the assay buffer provided without probenecid. […] Fluorescence was imaged with a 10x objective on an (Olympus, Shinjuku City, Tokyo, Japan) IX73 microscope (Fluo-4 em. 506 nm).\nLive imaging settings of Fluo-4 were as follows, 79 ms exposure, 2 s intervals for 90 cycles (180 s). […] First regions of interest (ROI) were automatically determined using the analyze particles plug in. […] Relative fluorescence is defined as F/F0 where F corresponds to the cell fluorescence and F0 to the basal fluorescence."}}, "note": "“And” between values parts separate entries of the source, which are not always exact repeats. Equal values may be shown once. Where a name gives a salt, the structure may show the parent alone. *1 amine or outer side, *2 acyl side, *3 side chain or, on linkers, in order; H or OH if unused. Where a SMILES comes first, the peptide text is derived from it. [ ]: non-standard residue; d: D form. X1 = NCCCC[C@H](N)CN([C@@H](CCCCN)C(=O)[*:2])[*:1]; Tle = CC(C)(C)[C@H](N)C(=O)O", "data": [{"smiles": "CCOC(=O)[C@H](CC(C)C)NC(=O)[C@@H](NC(=O)[C@H](Cc1c[nH]c2ccccc12)NC(=O)[C@@H]1CCCN1C(=O)[C@H](CCCCN)NC[C@@H](N)CCCCN)C(C)(C)C", "note": "[PD149163, PD149163 tetrahydrochloride hydrate] (H-[X1]PW[Tle]L-OEt; N-terminus and C-terminus assumed)", "values": [{"measurement": "EC50", "setting": "NTSR1; given as LogEC50 (negative sign), read-out: Potency [LogEC50 (M)], Gq activation, NTSR1 (converted)", "result": "2.81e-08", "unit": "M"}, {"measurement": "Efficacy (Raw BRET), Gq activation, NTSR1", "setting": "NTSR1", "result": "0.220 Raw BRET and 0.220 ± 0.013 Raw BRET"}, {"measurement": "vesicle-sized particle counts (NTSR1-Venus puncta) vs antagonist-only treated slices", "setting": "NTSR1-Venus", "result": "significantly higher than antagonist-only treated slices at 15, 30, 45, and 60 min"}, {"measurement": "vesicle-sized particle counts (NTSR1-Venus puncta) vs control slices", "setting": "NTSR1-Venus", "result": "significantly higher than controls at 30, 45, and 60 min"}, {"measurement": "intracellular calcium peak increase", "setting": "[1]; 0.1 μM", "result": 2, "unit": "fold"}, {"measurement": "intracellular calcium peak increase", "setting": "[1]; 1 μM", "result": 2, "unit": "fold"}, {"measurement": "intracellular calcium peak increase", "setting": "[2]; 0.1 μM", "result": 2, "unit": "fold"}, {"measurement": "intracellular calcium peak increase", "setting": "[2]; 1 μM", "result": 2, "unit": "fold"}]}]}
